Measurements published in patent US4238491A (priority 1977, dated 1980).
Where two headings read alike, the source gives them in different places.

Assays:
rats = system: rats
Description: Urinanalysis was conducted on the last day of the repeated administration as to pH, protein content, glucose content, ketone body content and occult blood by testing paper methods. (Labstix, Miles-Sankyo Co., Ltd.)

[1] = system: blood pressure of anesthesized dogs; assay: Effect on blood pressure of anesthesized dogs; assay type: in vivo, dog (mongrel); settings: for average rate of blood pressure decrease: within 6 hours
Description: Changes in blood pressure were measured for 6 hours after the administration with a multi-purpose polygraph RM-85 made by NIHON KODEN.
The observed effect was a blood pressure decrease immediately after administration which came up nearly to plateau 2 hours after for 1 mg/kg, and 3 hours after for 3 mg/kg and 9 mg/kg, and in all cases remained on the plateau for 6 hours after that. The DB20 value obtained from the dose-response curve of FIG. 6 was 2 mg/kg.

histamine = settings: in vivo; cited from earlier work
[2] = Excretion into urine after oral administration; settings: rabbit, 10 mg/kg
Description: Urine was collected with urine bladder catheter for rabbits and metabolic cages for rats.

[3] = system: noradrenaline in heart and adrenals; settings: in vivo; cited from earlier work
motorability = assay: Effect on motorability (rotating bar); assay type: in vivo, mouse (dd-strain); settings: 25 mg/kg oral; for Number of Animals that fell: 10 examined
Description: 25 mg/kg of MR were administered to 10 mice per one group. The mice were put on a wooden bar of 2 cm diameter which rotated at 10 r.p.m., and the number of mice which fell down from the bar was counted.

Which results are given for `COC(=O)[C@H]1[C@H]2C[C@@H]3c4[nH]c5cc(OC)ccc5c4CCN3C[C@H]2C[C@@H](O)[C@@H]1OC` [MR, methylreserpate]?
urine Glucose - (rats; 25.0 mg/kg): 10 Number of Rats; urine Ketone Body + (rats; 25.0 mg/kg): 0 Number of Rats; urine Ketone Body - (rats; 25.0 mg/kg): 10 Number of Rats; urine Occult Blood - (rats; 25.0 mg/kg): 10 Number of Rats; urine Protein + (rats; 25.0 mg/kg): 6 Number of Rats; urine Protein ++ (rats; 25.0 mg/kg): 4 Number of Rats; urine Protein +++ (rats; 25.0 mg/kg): 0 Number of Rats; urine Protein - (rats; 25.0 mg/kg): 0 Number of Rats; urine pH 6 (rats; 25.0 mg/kg): 2 Number of Rats; urine pH 7 (rats; 25.0 mg/kg): 7 Number of Rats; urine pH 8 (rats; 25.0 mg/kg): 1 Number of Rats; urine Glucose - (rats; 50.0 mg/kg): 10 Number of Rats; urine Ketone Body + (rats; 50.0 mg/kg): 1 Number of Rats; urine Ketone Body - (rats; 50.0 mg/kg): 9 Number of Rats; urine Occult Blood - (rats; 50.0 mg/kg): 10 Number of Rats; urine Protein + (rats; 50.0 mg/kg): 6 Number of Rats; urine Protein ++ (rats; 50.0 mg/kg): 4 Number of Rats; urine Protein +++ (rats; 50.0 mg/kg): 0 Number of Rats; urine Protein - (rats; 50.0 mg/kg): 0 Number of Rats; urine pH 6 (rats; 50.0 mg/kg): 1 Number of Rats; urine pH 7 (rats; 50.0 mg/kg): 7 Number of Rats; urine pH 8 (rats; 50.0 mg/kg): 2 Number of Rats; urine Glucose - (rats; 100.0 mg/kg): 10 Number of Rats; urine Ketone Body + (rats; 100.0 mg/kg): 1 Number of Rats; urine Ketone Body - (rats; 100.0 mg/kg): 9 Number of Rats; urine Occult Blood - (rats; 100.0 mg/kg): 10 Number of Rats; urine Protein + (rats; 100.0 mg/kg): 3 Number of Rats; urine Protein ++ (rats; 100.0 mg/kg): 3 Number of Rats; urine Protein +++ (rats; 100.0 mg/kg): 3 Number of Rats; urine Protein - (rats; 100.0 mg/kg): 1 Number of Rats; urine pH 6 (rats; 100.0 mg/kg): 2 Number of Rats; urine pH 7 (rats; 100.0 mg/kg): 7 Number of Rats; urine pH 8 (rats; 100.0 mg/kg): 1 Number of Rats; increase in urine volume, interpretation (rats; higher doses): seems to be a diuretic effect; urinanalysis overall (rats; last day of repeated administration): do not indicate abnormal feature any worth special mention; urine Glucose - (rats; rat, in vivo): 10 Number of Rats; urine Ketone Body + (rats; rat, in vivo): 0 Number of Rats; urine Ketone Body - (rats; rat, in vivo): 10 Number of Rats; urine Occult Blood - (rats; rat, in vivo): 10 Number of Rats; urine Protein + (rats; rat, in vivo): 5 Number of Rats; urine Protein ++ (rats; rat, in vivo): 3 Number of Rats; urine Protein +++ (rats; rat, in vivo): 2 Number of Rats; urine Protein - (rats; rat, in vivo): 0 Number of Rats; urine pH 6 (rats; rat, in vivo, pH 6): 3 Number of Rats; urine pH 7 (rats; rat, in vivo, pH 7): 4 Number of Rats; urine pH 8 (rats; rat, in vivo, pH 8): 3 Number of Rats; time to plateau ([1]; 1 mg/kg intravenous): 2 h; time to plateau ([1]; 3 mg/kg intravenous): 3 h; average rate of blood pressure decrease ([1]; 3 mg/kg intravenous): 22.3%; time to plateau ([1]; 9 mg/kg intravenous): 3 h; average rate of blood pressure decrease ([1]; 9 mg/kg intravenous): 35.1%; duration of plateau ([1]; 1, 3 and 9 mg/kg intravenous): 6 h; ED (DB20) ([1]; Canis lupus familiaris, 6 h, intravenous, from dose-response curve of FIG. 6): 2 mg/kg; histamine (histamine): increse of histamine; dose excreted at 48 h [2]: 10 to 15%; noradrenaline in heart and adrenals [3]: slight decrease of noradrenaline in heart and adrenals; Number of Animals that fell (motorability; 1 hour after): 0 Number of Animals; Number of Animals that fell (motorability; 2 hours after): 2 Number of Animals; effect on motorability (motorability; 3 hours after): slight suppression of motorability
